According to patent publication US20220332876A1, “HYDROPHILIC-HYDROPHOBIC COPOLYMER CARRYING SHORT CHAIN FATTY ACID ESTER” (UNIVERSITY OF TSUKUBA, priority 2019, published 2022):

What was measured:
[1] = Body weight in radiation enhancer Test Example 10; type: in vivo, C57BL/6J mice
Experimental: Five or seven 5 to 7-week-old C57BL/6J mice per group obtained similarly as in the above test were bred under similar conditions. 0.076×10^6 melanoma B16F10 cells per 100 μL (serum free DMEM) were injected subcutaneously into the outer side of the right thigh of each of the mice (Day 9 before irradiation). […] The irradiation conditions were set to 10 Gy, 150 kV, 20 mA, Al+Cu (0.5 mm+0.1 mm) filtration, and 330 mm intervals.
(3) The data on body weight changes in the mice as mean SD values (n=7) are illustrated in FIG. 35. The t-test is the same as described above.

melanoma B16F10 cells = test: Effect 2 as radiation enhancer (melanoma xenograft model); type: in vivo, C57BL/6J mice; settings: for tumor weight / tumor size at the end of the test: Day 6 after irradiation
Experimental: Five or seven 5 to 7-week-old C57BL/6J mice per group obtained similarly as in the above test were bred under similar conditions. 0.076×10^6 melanoma B16F10 cells per 100 μL (serum free DMEM) were injected subcutaneously into the outer side of the right thigh of each of the mice (Day 9 before irradiation). When the cancer volume reached from 350 to 560 mm^3, the mice were randomly divided into the following administration groups. The irradiation conditions were set to 10 Gy, 150 kV, 20 mA, Al+Cu (0.5 mm+0.1 mm) filtration, and 330 mm intervals.
The cancer volume was calculated in the same manner as described above.
GP4: Butyric acid (i.p.; 250 mg/kg) (6 hours before irradiation)+IR group (n=7)
GP5: Butyric acid (i.p.; 500 mg/kg) (24 hours before irradiation)+IR group (n=7)
GP6: BNP (i.p.: 500 mg/kg) (6 hours before irradiation)+IR group (n=7)
GP7: BNP (i.p.: 500 mg/kg) (12 hours before irradiation)+IR group (n=7)
(1) The data on cancer proliferation profiles by 5 Gy irradiation after butyric acid and NP administration in a melanoma xenograft model is illustrated in FIG. 33.
(2) The data on the cancer weight at the end of the test (Day 6 after irradiation) is illustrated in FIG. 32 as mean±SEM values (n=from 2 to 7). The t-test is the same as in Test 8 (5).

[2] = mouse, in vivo
Experimental: (§1) Seven 7 to 8-week-old C57BL/6J mice (male) per group were obtained from Charles River Japan, Inc (Yokohama). These mice were bred while being freely fed with a standard solid feed at controlled temperature (23±1° C.) and humidity (50±5%) in a controlled temperature (23±1° C.) and humidity (50±5%) under non-pathogenic conditions in 12 hours dark/light cycles. The mice were randomly divided into the following administration groups of GP1 to GP6, and allowed to freely drink each sample described until Day 36. One day later, a glucose resistance test was performed. In the test, the body weight and sample consumption for each mouse were monitored every day. The sample was then replaced with drinking water until the end of the test (Day 40).
These organs were stored in a 10% neutral buffer for further histological analysis. The Student's t-test is the same as described above.
(§2) The organs of the mice taken out after dissection were fixed by immediately putting them in a 10% neutral formalin solution and immersing them therein for 1 day. Thereafter, the solution was replaced with a 70% ethanol solution for paraffin embedding. All the organs after the paraffin embedding were processed into tissue sections with a thickness of 5 μm, which were hematoxylin/eosin (HE) stained by a routine method. The tissue sections were dehydrated with high-concentration alcohol and washed with xylene, followed by microscope examination (biorevo, BZ-9000, Keyence). A villus length was measured by ImageJ software (NIH). […] The t-test is the same as described above.

[3] = Antidiabetic test (glucose resistance test, pancreatic histology); type: in vivo, C57BL/6J mice; settings: for size of the islets of Langerhans: H & E stained pancreatic tissue; for glucose concentration in glucose resistance test: glucose 2 g/kg orally, [glucose]60 min−[glucose]0 min, compared with the diabetic model mice
Experimental: as §1
(2) The glucose resistance test was performed to evaluate the therapeutic effects of short chain fatty acids in controlling the metabolism of the administered glucose. Sixteen (16) hours after overnight constraint, glucose (2 g/kg) was orally administered to the mice. One hour before and after the glucose administration, 10 μL of blood was collected from the tail vein, and mixed with heparin-containing (50 units/mL) saline in a volume (v:v) ratio of 1:1. A glucose concentration in the diluted blood was measured by FUJI DRY-CHEM 7000V (FUJIFILM Corporation). A final blood glucose concentration was calculated by the following equation:
Final glucose concentration (mg/mL)=[glucose]60 min−[glucose]0 min
as §2, with “In accordance with a routine method, all” for “All”, “alcohol,” for “alcohol and”, “then fixed, and subjected to” for “followed by”, “region of the islets of Langerhans” for “villus length”, “determined” for “measured”, “(NIH). The results are illustrated in FIG. 30.” for “(NIH).”

[4] = Pharmacokinetic study (2): phenylbutyric acid monomer in plasma and liver by LC/MS; type: in vivo, ICR mice; settings: 200 mg/kg (1.22 mmol-4PBA/kg); blood and liver
Experimental: Forty-five (45) 7-week-old ICR mice (male) were randomly divided into the following three groups. Doses for the administration groups 2GP and 3GP were determined so that the amount of phenylbutyric acid contained therein reached 200 mg/kg (1.22 mmol-4PBA/kg). After each sample is administered nearly simultaneously to all the mice, 1 mL of blood is taken by cardiac puncture, according to each endpoint (7 endpoints of 30 min, 1 h, 2 h, 4 h, 12 h, 16 h, 24 h), to separate plasma. The target organ, liver, was also taken out from each of the mice, and content of the phenyl butyric acid monomer was quantified by high performance liquid chromatography/mass spectrometry (LC/MS). The measurement results are illustrated in FIG. 43. In these figures, PBA was totally metabolized within 4 hours, whereas 4-Ph-BNP persistently released the phenylbutyric acid monomer in the blood and in the liver, and the release was not terminated even after 24 hours.
1GP: Saline (control, 3 mice) 2GP: 4-Phenylbutyric acid (7 endpoints (30 min, 1 h, 2 h, 4 h, 12 h, 16 h, and 24 h)×3 mice) 3GP: Ph-BNP (7 endpoints (30 min, 1 h, 2 h, 4 h, 12 h, 16 h, and 24 h)×3 mice)

Compound	body weight change / toxicity ([1]; i.p. before irradiation)	tumor proliferation suppressive effect (order of groups) (melanoma B16F10 cells; i.p. 6 hours before 5 Gy irradiation)	tumor weight / tumor size at the end of the test (melanoma B16F10 cells; i.p. 6 hours before irradiation)	tumor proliferation suppressive effect (order of groups) (melanoma B16F10 cells; i.p. 24 hours before 5 Gy irradiation)	tumor weight / tumor size at the end of the test (melanoma B16F10 cells; i.p. 24 hours before irradiation)	villus length in the duodenum, jejunum, ileum, and large intestine [2]	size of the islets of Langerhans [3]	glucose concentration in glucose resistance test [3]	time until totally metabolized [4]	body weight change / toxicity ([1]; mouse, in vivo, ip)
CCCC(=O)O [butyric acid]	body weight decrease is found	irradiation group <butyric acid (6 hours before) administration group	significantly reduced	BNP (6 hours before) administration group=butyric acid (24 hours before) administration group	significantly reduced	same trend	reduced	no significant differences		
O=C(O)CCCc1ccccc1 [4-phenylbutyric acid]									≤ 4 h	
CCC(=O)O [propionic acid]						same trend	reduced	no significant differences		
CH3O—(CH2CH2O)m—CH2PhCH2[CH2CH(OC(═O)CH2CH2CH3)]nS(═S)OCH2CH3 [N721]						did not have a shortened villus length or damage to the digestive tract				does not have a body weight decrease
